{
  "source": "patent US4652554A",
  "about": "“Nitro-substituted 1-β-D-arabinofuranosylcytosines” (St. Jude Children's Research Hospital, priority 1982, dated 1987)",
  "key": {"Cytidine deaminase": {"molecular_target": "Cytidine deaminase (Mus musculus, UniProt P56389)", "sequence (P56389 whole entry)": "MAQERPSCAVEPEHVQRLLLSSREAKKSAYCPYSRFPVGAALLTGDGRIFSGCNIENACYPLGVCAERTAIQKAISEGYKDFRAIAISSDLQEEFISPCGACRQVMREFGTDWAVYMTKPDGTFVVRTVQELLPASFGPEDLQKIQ", "test": "Substrate specificity of cytidine deaminase (spectrophotometric deamination assay)", "type": "biochemical", "conditions": "for Relative initial rate of deamination: 2.5×10^-4 M substrate, 1.3 mg enzyme protein, pH 7.0, 37° C., cytidine = 100", "protocol": "Thus, mouse kidney acetone powder (3 g. obtained from Sigma Chemical Co., St. Louis, Mo.) was extracted at 55°-60° C. for 5 minutes with phosphate buffer (pH 8.0, 0.05M). The extract was filtered through four layers of guaze bandage, and the remaining colloidal materials were removed by centrifugation at 20,000 g. for 10 minutes. The supernatant was then filtered through a Nalgene filter unit (0.45 μm grid membrane) to give a clear yellowish filtrate that was adjusted to 40% saturation by the addition of solid ammonium sulfate (24 g/100 ml. of filtrate) with stirring at room temperature, and stirring was continued for 30 minutes. After removal of the precipitate by centrifugation (20,000 g. for 30 minutes), the active supernatant was adjusted to 70% saturation by further addition of ammonium sulfate (24 g/100 ml of supernatant). The resulting precipitate, recovered by centrifugation (20,000 g. for 30 minutes), was dissolved in 4 ml. of phosphate buffer (pH 7.0, 0.05M) and dialyzed twice against 2 liters of the same buffer.\nProtein content was determined by Bio-Rad Protein Assay. […] All reaction mixtures contained 2.5×10^-4 M of substrate and 1.3 mg of enzyme protein in a final volume of 1.0 ml. of phosphate buffer (pH 7.0, 0.05M)."}, "MOLT-4 (T-cells)": {"system": "MOLT-4 (T-cells)", "test": "Cytotoxicity (cell growth inhibition), MOLT-4", "type": "cell-based", "conditions": "Homo sapiens, read-out: IC50 (molar conc. for 50% inhib. of cell growth)"}, "CCFR-CEM/ara-C (mutant)": {"system": "CCFR-CEM/ara-C (mutant)", "test": "Cytotoxicity (cell growth inhibition), ara-C resistant mutant", "type": "cell-based", "conditions": "Homo sapiens, read-out: IC50 (molar conc. for 50% inhib. of cell growth)"}, "RPMI-6410 (B-cells)": {"system": "RPMI-6410 (B-cells)", "test": "Cytotoxicity (cell growth inhibition), RPMI-6410", "type": "cell-based", "conditions": "Homo sapiens, read-out: IC50 (molar conc. for 50% inhib. of cell growth)"}, "human leukemia cells": {"system": "human leukemia cells", "test": "Cytotoxicity to human leukemia cells in culture, summary", "protocol": "Experiments were also carried out to determine the growth potential of cultured human lymphoblasts in the presence of nitrara-C in tissue culture."}, "murine leukemia L1210": {"system": "murine leukemia L1210", "test": "In vivo L1210 leukemia cell number in peritoneal cavity 24 h after single i.p. dose", "parameters": "species or system murine (B6D2F1/J female mice)", "conditions": "720 mg/kg i.p., 24 hours after treatment (day 6)", "protocol": "1-(2-O-Nitro-β-D-arabinofuranosyl)cytosine (nitrara-C) is a powerful anti-neoplastic agent particularly against the leukemias.\nB6D2F1 /J female mice weighing ~20 g. were inoculated intraperitoneally with 1×10^5 cells of the murine leukemia, L1210. Five days later, the leukemia cells were washed from the peritoneal cavities of untreated mice, and baseline counts were made. Concomitantly, other groups of mice were treated i.p. with either ara-C.HCl or nitrara-C.HCl. Each drug was administered at a level of 720 mg/kg in a volume of 0.01 ml/gm of mouse weight. Twenty-four hours later, on day 6, cells were washed from the peritoneal cavities of both treated and NaCl-injected mice, and cell numbers were compared.\nFive days after the intraperitoneal inoculation of B6D2F1 /J mice with one hundred thousand cells of leukemia L1210, an average of 255 million cells were recovered from the abdominal compartments of untreated mice. Twenty-four hours later, this value had increased by 52 percent for NaCl-injected mice, but had declined by 90 percent for animals that received 720 mg/kg of nitrara-C and 77% for ara-C treated group."}, "[1]": {"system": "experimental tumors in animals", "conditions": "cited from earlier work"}, "CCRF-CEM (T-cells)": {"system": "CCRF-CEM (T-cells)", "test": "Cytotoxicity (cell growth inhibition), CCRF-CEM", "type": "cell-based", "conditions": "Homo sapiens, read-out: IC50 (molar conc. for 50% inhib. of cell growth)"}, "L1210": {"system": "L1210", "test": "Life-span of mice inoculated i.p. with L1210 (3×10^6 cells), treatment started 24 h after implantation", "type": "in vivo, murine (B6D2F1/J female mice)", "conditions": "for indefinite cures (60 day survivors): 5 mice per group; for extension of lifespan: 2000 mg/kg", "protocol": "In a similar further study, B6D2F1 /J female mice were inoculated i.p. with 3×10^6 cells of L1210. Treatment was started 24 hours after tumor implantation. Nitrara-C hydrochloride treatment regimens were as follows:\nInjections of 0.9 percent saline were used as a control.\nOn regimen 1, statistically significant increase in life-span was obtained with dosages higher than 34 mg/kg."}, "[2]": {"test": "Effect of cytidine deaminase on cytotoxicity for CCRF-CEM cells", "conditions": "cytidine deaminase"}, "CCRF-CEM cells": {"system": "CCRF-CEM cells", "test": "Effect of cytidine deaminase on cytotoxicity for CCRF-CEM cells", "conditions": "Homo sapiens, CCRF-CEM"}, "[3]": {"conditions": "human leukemia cells in culture"}},
  "note": "Like-named read-outs stand apart in the source and are kept apart here.",
  "data": [
    {"smiles": "Nc1ccn([C@H]2C[C@H](O)[C@@H](CO)O2)c(=O)n1", "note": "[2'-Deoxycytidine, reference compound]", "values": [
      {"measurement": "Relative initial rate of deamination", "setting": "Cytidine deaminase", "result": 39}
    ]},
    {"smiles": "Nc1ccn([C@@H]2O[C@H](CO)[C@@H](O)[C@@H]2O)c(=O)n1", "note": "[Ara-C, 1-β-D-arabinofuranosylcytosine]", "values": [
      {"measurement": "IC50", "setting": "MOLT-4 (T-cells); MOLT-4, 48 h", "result": 0.01, "unit": "µM"},
      {"measurement": "IC50", "setting": "CCFR-CEM/ara-C (mutant); 48 h", "result": 100, "unit": "µM"},
      {"measurement": "IC50", "setting": "RPMI-6410 (B-cells); RPMI 6410, 48 h", "result": 0.06, "unit": "µM"},
      {"measurement": "dependence of cytotoxicity on phosphorylation (in words)", "setting": "human leukemia cells", "result": "cytotoxicity depends on phosphorylation"},
      {"measurement": "decline in number of L1210 cells recovered from abdominal compartment", "setting": "murine leukemia L1210", "result": 77, "unit": "%"},
      {"measurement": "activity in experimental tumors (in words)", "setting": "[1]", "result": "active in several experimental tumors in animals"},
      {"measurement": "IC50", "setting": "CCRF-CEM (T-cells); CCRF-CEM, 48 h", "result": 0.02, "unit": "µM"}
    ]},
    {"smiles": "Cl.Nc1ccn([C@@H]2O[C@H](CO)[C@@H](O)[C@@H]2O[N+](=O)[O-])c(=O)n1", "note": "[Nitrara-C hydrochloride, 1-(2-O-Nitro-β-D-arabinofuranosyl)cytosine hydrochloride]", "values": [
      {"measurement": "minimal effective dose", "setting": "L1210; Mus musculus, L1210, ip, 168 h, regimen 1 (daily for 7 days), read-out: dosages giving statistically significant increase in life-span", "result": "> 34", "unit": "mg/kg"},
      {"measurement": "toxic deaths", "setting": "L1210; any of the above regimens at the highest dosages", "result": "Toxic deaths were not seen"},
      {"measurement": "extension of life-span", "setting": "L1210; regimen 1 (daily for 7 days), 208 mg/kg", "result": 162, "unit": "%"},
      {"measurement": "indefinite cures (60 day survivors)", "setting": "L1210; regimen 1 (daily for 7 days), 259 mg/kg", "result": 3, "unit": "survivors"},
      {"measurement": "indefinite cures (60 day survivors)", "setting": "L1210; regimen 1 (daily for 7 days), 346 mg/kg", "result": 1, "unit": "survivor"},
      {"measurement": "indefinite cures (60 day survivors)", "setting": "L1210; regimen 1 (daily for 7 days), 432 mg/kg", "result": 2, "unit": "survivors"},
      {"measurement": "indefinite cures (60 day survivors)", "setting": "L1210; regimen 1 (daily for 7 days), 720 mg/kg", "result": 1, "unit": "survivor"},
      {"measurement": "extension of lifespan", "setting": "L1210; regimen 2 (day 1 only)", "result": 57, "unit": "%"},
      {"measurement": "extension of lifespan", "setting": "L1210; regimen 3 (days 1 and 4 only)", "result": 120, "unit": "%"},
      {"measurement": "extension of lifespan", "setting": "L1210; regimen 4 (days 1, 4 and 7)", "result": 197, "unit": "%"}
    ]},
    {"smiles": "Nc1ccn([C@@H]2O[C@H](CO)[C@@H](O)[C@@H]2O[N+](=O)[O-])c(=O)n1", "note": "[Nitrara-C, 1-(2-O-nitro-β-D-arabinofuranosyl)cytosine]", "values": [
      {"measurement": "IC50", "setting": "MOLT-4 (T-cells); MOLT-4 (T-cells), 48 hours", "result": 0.4, "unit": "µM"},
      {"measurement": "deamination by cytidine deaminase (in words)", "setting": "Cytidine deaminase", "result": "not deaminated by cytidine deaminase"},
      {"measurement": "Relative initial rate of deamination", "setting": "Cytidine deaminase", "result": "< 1"},
      {"measurement": "metabolised", "setting": "[2]", "result": "< 1", "unit": "%"},
      {"measurement": "IC50", "setting": "CCRF-CEM cells; read-out: IC50 (molar conc. for 50% inhib. of cell growth), with cytidine deaminase", "result": 0.6, "unit": "µM"},
      {"measurement": "IC50", "setting": "CCRF-CEM cells; read-out: IC50 (molar conc. for 50% inhib. of cell growth), without cytidine deaminase", "result": 0.6, "unit": "µM"},
      {"measurement": "IC50", "setting": "CCFR-CEM/ara-C (mutant); CCFR-CEM/ara-C (mutant), deficient in deoxycytidine kinase, 48 hours", "result": 1000, "unit": "µM"},
      {"measurement": "IC50", "setting": "RPMI-6410 (B-cells); RPMI-6410 (B-cells), 48 hours", "result": 6, "unit": "µM"},
      {"measurement": "dependence of cytotoxicity on phosphorylation (in words)", "setting": "human leukemia cells", "result": "cytotoxicity depends on phosphorylation"},
      {"measurement": "activity compared to ara-C (in words)", "setting": "human leukemia cells; [3]", "result": "compares favorably to that of ara-C"},
      {"measurement": "cytotoxicity (in words)", "setting": "human leukemia cells; [3]", "result": "highly cytotoxic to various human leukemia cells in culture"},
      {"measurement": "decline in number of L1210 cells recovered from abdominal compartment", "setting": "murine leukemia L1210", "result": 90, "unit": "%"},
      {"measurement": "IC50", "setting": "CCRF-CEM (T-cells); CCRF-CEM (T-cells), 48 hours", "result": 0.6, "unit": "µM"}
    ]}
  ]
}
